Experimental data reported in patent US20120142646A1, “Novel Compounds 621” (priority 2006, published 2012).

Molecular target: T1, recombinant human α1D receptor (Homo sapiens, UniProt P25100)
T1 construct: expressed in transfected cells; host or cells: HEK293
T1 sequence (P25100 1-572): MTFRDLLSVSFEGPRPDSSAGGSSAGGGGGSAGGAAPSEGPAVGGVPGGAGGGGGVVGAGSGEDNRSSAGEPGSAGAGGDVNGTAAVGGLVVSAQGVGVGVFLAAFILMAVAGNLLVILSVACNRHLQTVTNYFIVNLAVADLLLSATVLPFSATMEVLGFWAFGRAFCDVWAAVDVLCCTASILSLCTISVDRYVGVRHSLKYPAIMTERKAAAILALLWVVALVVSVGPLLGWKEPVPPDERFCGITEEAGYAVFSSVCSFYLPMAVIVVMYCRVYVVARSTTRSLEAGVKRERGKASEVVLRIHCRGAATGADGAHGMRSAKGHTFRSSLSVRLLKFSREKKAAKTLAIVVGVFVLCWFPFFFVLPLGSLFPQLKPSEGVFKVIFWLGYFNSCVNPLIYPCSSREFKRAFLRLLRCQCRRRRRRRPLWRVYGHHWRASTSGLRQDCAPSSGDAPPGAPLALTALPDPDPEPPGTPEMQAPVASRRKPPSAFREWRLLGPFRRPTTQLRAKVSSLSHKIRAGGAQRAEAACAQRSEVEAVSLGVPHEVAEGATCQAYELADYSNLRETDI
Experiment: Adrenergic α1D [3H]-prazosin binding, HEK293 membranes
Details: inhibition of [3H]-prazosin binding (0.3 nM), read-out: α1 bind pIC50 (converted)
Description: Membranes were prepared from human embryonic kidney 293 (HEK293) cells expressing recombinant human α1D receptor. These were diluted in Assay Buffer (50 mM HEPES, 1 mM EDTA, pH 7.4) to provide a final concentration of membranes that gave a clear window between maximum and minimum specific binding.
Assays were performed in U-bottomed 96-well polypropylene plates. 10 μL [^3H]-prazosin (0.3 nM final concentration) and 10 μL of test compound (10× final concentration) were added to each test well. For each assay plate 8 replicates were obtained for [^3H]-prazosin binding in the presence of 10 μL vehicle (10% (v/v) DMSO in Assay Buffer; defining maximum binding) or 10 μL BMY7378 (10 μM final concentration; defining non-specific binding (NSB)). Membranes were then added to achieve a final volume of 100 μL. The plates were incubated for 2 hours at room temperature and then filtered onto PEI coated GF/B filter plates, pre-soaked for 1 hour in Assay Buffer, using a 96-well plate Tomtec cell harvester. Five washes with 250 μL wash buffer (50 mM HEPES, 1 mM EDTA, pH 7.4) were performed at 4° C. to remove unbound radioactivity. […] The plates were sealed (TopSeal A) and filter-bound radioactivity was measured with a scintillation counter (TopCount, Packard BioScience) using a 3-minute counting protocol.
Total specific binding (B0) was determined by subtracting the mean NSB from the mean maximum binding. […]

IC50: 100 nM
Structure (SMILES): CCCCC[C@@H](C)N(CCNCCc1ccc(O)c2c1OCC(=O)N2)C(=O)CCNCCc1ccccc1 [Example 60, (R)—N-(Heptan-2-yl)-N-(2-(2-(5-hydroxy-3-oxo-3,4-dihydro-2H-benzo[b][1,4]oxazin-8-yl)ethylamino)ethyl)-3-(phenethylamino)propanamide bis(trifluoroacetate)]
